Measured values taken from ChEMBL document CHEMBL6127035, “Novel pyridazinone derivatives bind to KSRP: Synthesis, anti-tumor biological evaluations and modelling insights” (Eur J Med Chem, 2024).
One block for each molecule: values may come before it. Calls of active or inactive are those of the source. The rule behind the calls is not given here.

Tests used:
[1] = system: MCF7; experiment: Antiproliferative activity against human MCF7 cells assessed as reduction in cell viability incubated for 2 days by MTT assay; type: functional, cell-based; details: MCF7, 48 h
[2] = system: NCI-H460; experiment: Antiproliferative activity against human NCI-H460 cells assessed as reduction in cell viability incubated for 2 days by MTT assay; type: functional, cell-based; details: NCI-H460, 48 h
[3] = system: MDA-MB-231; experiment: Antiproliferative activity against human MDA-MB-231 cells assessed as reduction in cell viability incubated for 2 days by MTT assay; type: functional, cell-based; details: MDA-MB-231, 48 h
[4] = system: A549; experiment: Antiproliferative activity against human A549 cells assessed as reduction in cell viability incubated for 2 days by MTT assay; type: functional, cell-based; details: A549, 48 h
[5] = system: HCT-116; experiment: Antiproliferative activity against human HCT-116 cells assessed as reduction in cell viability incubated for 2 days by MTT assay; type: functional, cell-based; details: HCT-116, 48 h
[6] = system: MIA PaCa-2; experiment: Antiproliferative activity against human MIA PaCa-2 cells assessed as reduction in cell viability incubated for 2 days by MTT assay; type: functional, cell-based; details: MIA PaCa-2, 48 h
[7] = Cytotoxicity against human L02 cells assessed as reduction in cell viability incubated for 2 days by MTT assay; type: toxicity, cell-based
[8] = system: KB; experiment: Antiproliferative activity against human KB cells assessed as reduction in cell viability incubated for 2 days by MTT assay; type: functional, cell-based; details: 48 h
[9] = system: U-87 MG; experiment: Antiproliferative activity against human U-87 MG cells assessed as reduction in cell viability incubated for 2 days by MTT assay; type: functional, cell-based, U-87MG ATCC; details: 48 h
[10] = system: 4T1; experiment: Antiproliferative activity against mouse 4T1 cells assessed as reduction in cell viability incubated for 2 days by MTT assay; type: functional, cell-based; details: 4T1, 48 h
[11] = target: T1, Far upstream element-binding protein 2 (Homo sapiens) (UniProt Q92945); experiment: Binding affinity to KSRP KH23 domain (214 to 413 residues) (unknown origin) extracted from Escherichia coli incubated overnight by SDS-PAGE based immunoblot analysis
T1 sequence (whole entry): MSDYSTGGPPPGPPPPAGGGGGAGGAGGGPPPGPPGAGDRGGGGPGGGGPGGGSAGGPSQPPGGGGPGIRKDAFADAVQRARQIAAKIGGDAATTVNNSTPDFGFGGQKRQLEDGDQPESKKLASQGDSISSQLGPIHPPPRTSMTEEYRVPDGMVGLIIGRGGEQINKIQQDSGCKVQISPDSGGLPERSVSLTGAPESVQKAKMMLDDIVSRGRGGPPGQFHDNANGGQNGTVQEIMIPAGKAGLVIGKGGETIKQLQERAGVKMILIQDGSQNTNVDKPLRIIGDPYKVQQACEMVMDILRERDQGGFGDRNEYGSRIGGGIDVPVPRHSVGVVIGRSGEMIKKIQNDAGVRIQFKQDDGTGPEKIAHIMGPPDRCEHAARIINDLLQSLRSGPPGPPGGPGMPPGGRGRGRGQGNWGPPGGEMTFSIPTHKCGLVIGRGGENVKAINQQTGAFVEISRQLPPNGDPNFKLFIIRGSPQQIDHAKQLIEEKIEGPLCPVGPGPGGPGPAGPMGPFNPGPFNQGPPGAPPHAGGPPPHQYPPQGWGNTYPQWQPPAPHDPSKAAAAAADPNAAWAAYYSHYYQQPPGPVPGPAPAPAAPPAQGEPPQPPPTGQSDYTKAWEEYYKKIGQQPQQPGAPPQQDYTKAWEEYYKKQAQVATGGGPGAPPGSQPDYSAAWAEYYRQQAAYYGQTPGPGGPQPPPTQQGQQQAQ

[12] = target: T1, Far upstream element-binding protein 2 (Homo sapiens); experiment: Binding affinity to full length KSRP (unknown origin) incubated overnight by SDS-PAGE based immunoblot analysis
[13] = target: T1, Far upstream element-binding protein 2 (Homo sapiens); experiment: Binding affinity to full-length KSRP (1 to 715 residues) (unknown origin) extracted from Escherichia coli incubated overnight by SDS-PAGE based immunoblot analysis
[14] = target: T2, Far upstream element-binding protein 2 (Homo sapiens, UniProt Q92945); experiment: Binding affinity to recombinant full-length KSRP (unknown origin) assessed as dissociation constant by SPR analysis
T2 sequence (Q92945 whole entry): T1 sequence (whole entry)

[15] = system: MCF7; experiment: Induction of apoptosis in human MCF7 cells assessed as viable cells at 0.62 uM incubated for 48 hrs by Annexin V-FITC/PI staining based flow cytometric analysis (reference value: 89.3 %); type: functional; details: read-out: Activity
[16] = system: MCF7; experiment: Induction of DNA double-strand breaks in human MCF7 cells assessed as increase in gamma-H2AX foci formation at 10 uM incubated for 24 hrs by […] fluorescence microscopic analysis; type: functional, cell-based
[17] = system: MDA-MB-231; experiment: Inhibition of cell migration in human MDA-MB-231 cells assessed as reduction in wound healing index measured after 72 hrs by scratch assay; type: functional, cell-based
[18] = system: MCF7; experiment: Induction of apoptosis in human MCF7 cells assessed as necrotic cells at 2.5 uM incubated for 48 hrs by Annexin V-FITC/PI staining based flow cytometric analysis (reference value: 1.22 %); type: functional
[19] = system: Mitochondrial membrane; experiment: Induction of mitochondrial membrane potential loss in human MCF7 cells assessed as increase in green fluorescence at 10 uM incubated for 24 hrs by JC-1 staining based automated microscopic immunofluorescence analysis; type: cell membranes
[20] = system: MCF7; experiment: Induction of DNA double-strand breaks in human MCF7 cells assessed as enlarged nucleus at 10 uM incubated for 24 hrs by Hoechst 33342 staining based fluorescence microscopic analysis; type: functional, cell-based
[21] = system: MCF7; experiment: Induction of apoptosis in human MCF7 cells assessed as early apoptotic cells at 1.25 uM incubated for 48 hrs by Annexin V-FITC/PI staining based flow cytometric analysis (reference value: 5.12 %); type: functional
[22] = system: MCF7; experiment: Induction of apoptosis in human MCF7 cells assessed as late apoptotic cells at 0.62 uM incubated for 48 hrs by Annexin V-FITC/PI staining based flow cytometric analysis (reference value: 4.32 %); type: functional
[23] = system: MCF7; experiment: Induction of apoptosis in human MCF7 cells assessed as viable cells at 2.5 uM incubated for 48 hrs by Annexin V-FITC/PI staining based flow cytometric analysis (reference value: 89.3 %); type: functional; details: read-out: Activity
[24] = system: MCF7; experiment: Induction of ROS accumulation in human MCF7 cells assessed as increase in green fluorescence at 5 uM incubated for 24 hrs by DCFH-DA staining based automated microscopic immunofluorescence analysis; type: functional, cell-based
[25] = system: MCF7; experiment: Induction of apoptosis in human MCF7 cells assessed as necrotic cells at 1.25 uM incubated for 48 hrs by Annexin V-FITC/PI staining based flow cytometric analysis (reference value: 1.22 %); type: functional
[26] = system: MCF7; experiment: Induction of DNA double-strand breaks in human MCF7 cells assessed as increase in gamma-H2AX expression incubated for 24 hrs by Western blotting; type: functional, cell-based
[27] = system: MCF7; experiment: Induction of apoptosis in human MCF7 cells assessed as viable cells at 1.25 uM incubated for 48 hrs by Annexin V-FITC/PI staining based flow cytometric analysis (reference value: 89.3 %); type: functional; details: read-out: Activity
[28] = system: MCF7; experiment: Antiproliferation against human MCF7 cells assessed as effect on cell proliferation at 0.625 uM incubated for 2 days by MTT assay; type: functional, cell-based; details: time 2.0 day
[29] = Acute toxicity in BALB/c nu/nu mouse assessed as mortality rate at 30 mg/kg, ip administered for 7 days relative to control; type: organism-based; details: in vivo, time 7 day
[30] = system: MCF7; experiment: Induction of apoptosis in human MCF7 cells assessed as late apoptotic cells at 1.25 uM incubated for 48 hrs by Annexin V-FITC/PI staining based flow cytometric analysis (reference value: 4.32 %); type: functional
[31] = system: MCF7; experiment: Induction of DNA double-strand breaks in human MCF7 cells assessed as appearance of nuclear fragments at 10 uM incubated for 24 hrs by Hoechst 33342 staining based fluorescence microscopic analysis; type: functional, cell-based
[32] = system: MDA-MB-231; experiment: Inhibition of colony formation in human MDA-MB-231 cells assessed as reduction in colony count incubated for 2 weeks by crystal violet staining based analysis; type: functional, cell-based
[33] = system: MCF7; experiment: Inhibition of colony formation in human MCF7 cells assessed as reduction in colony count incubated for 2 weeks by crystal violet staining based analysis; type: functional, cell-based; details: dose 1.25-2.5 µM
[34] = system: MCF7; experiment: Induction of apoptosis in human MCF7 cells assessed as early apoptotic cells at 0.62 uM incubated for 48 hrs by Annexin V-FITC/PI staining based flow cytometric analysis (reference value: 5.12 %); type: functional
[35] = system: MCF7; experiment: Induction of apoptosis in human MCF7 cells assessed as late apoptotic cells at 2.5 uM incubated for 48 hrs by Annexin V-FITC/PI staining based flow cytometric analysis (reference value: 4.32 %); type: functional
[36] = system: MCF7; experiment: Inhibition of cell migration in human MCF7 cells assessed as reduction in wound healing index at 0.625 uM measured after 72 hrs by scratch assay; type: functional, cell-based
[37] = system: MCF7; experiment: Induction of morphological changes in human MCF7 cells assessed as cell membrane blebbing at 10 uM measured after 6 hrs by bright field microscopic; type: functional, cell-based
[38] = system: MCF7; experiment: Induction of apoptosis in human MCF7 cells assessed as necrotic cells at 0.62 uM incubated for 48 hrs by Annexin V-FITC/PI staining based flow cytometric analysis (reference value: 1.22 %); type: functional
[39] = system: MCF7; experiment: Induction of apoptosis in human MCF7 cells assessed as early apoptotic cells at 2.5 uM incubated for 48 hrs by Annexin V-FITC/PI staining based flow cytometric analysis (reference value: 5.12 %); type: functional

- IC50 [1]: 4450 nM
- IC50 [2]: 1020 nM
- IC50 [3]: 7570 nM
- IC50 [4]: 2070 nM
- IC50 [5]: 870 nM
- IC50 [6]: 440 nM
- IC50 [8]: 500 nM
- IC50 [9]: 580 nM
- IC50 [10]: 1820 nM
Compound: CC(CO)NS(=O)(=O)c1ccc(-n2ncc(Cl)c(Cl)c2=O)cc1 (stereo not given)
- IC50 at 2 days [7]: 4660 nM

- IC50 [1]: 8280 nM
- Activity [11]: Active
- IC50 [3]: 2550 nM
- IC50 [6]: 3220 nM
- Activity [12]: Active
- IC50 [8]: 6770 nM
- IC50 [10]: 2150 nM
- Activity [13]: Active
- Kd [14]: 17700 nM
Compound: O=C(CCCC[C@@H]1SC[C@@H]2NC(=O)N[C@@H]21)NCCCCNS(=O)(=O)c1ccc(-n2ncc(Cl)c(Cl)c2=O)cc1

- IC50 [1]: 4100 nM
- IC50 [3]: > 50000 nM
- IC50 [10]: 11400 nM
Compound: CCN(C)S(=O)(=O)c1ccc(-n2ncc(Cl)c(Cl)c2=O)cc1

- IC50 [6]: > 50000 nM
- IC50 [8]: > 50000 nM
Compound: COCC(C)NS(=O)(=O)c1ccc(-n2ncc(NCCCCCNC(=O)CCCC[C@@H]3SC[C@@H]4NC(=O)N[C@@H]43)c(Cl)c2=O)cc1 (stereo not given in full)

- IC50 [1]: > 20000 nM
- IC50 [3]: > 50000 nM
- IC50 [10]: > 10000 nM
Compound: CNCCOc1cnn(-c2ccc(S(=O)(=O)N(C)CCOS(C)(=O)=O)cc2)c(=O)c1Cl

- IC50 [1]: 5180 nM
- IC50 [2]: 660 nM
- IC50 [3]: 16000 nM
- IC50 [4]: 1960 nM
- IC50 [5]: 730 nM
- IC50 [6]: 390 nM
- IC50 [8]: 380 nM
- IC50 [9]: 320 nM
- IC50 [10]: 2100 nM
Compound: CN(CCOS(C)(=O)=O)S(=O)(=O)c1ccc(-n2ncc(Cl)c(Cl)c2=O)cc1
- IC50 at 2 days [7]: 4240 nM

- IC50 [1]: > 20000 nM
- IC50 [3]: 27200 nM
- IC50 [10]: > 10000 nM
Compound: CCN(CCOCCNC(=O)OC(C)(C)C)S(=O)(=O)c1ccc(-n2ncc(Cl)c(Cl)c2=O)cc1

Compound: CN(C)CCN(C)S(=O)(=O)c1ccc(-n2ncc(Cl)c(Cl)c2=O)cc1
- viability at 0.62 µM [15]: 85.5%
- Activity [16]: Active
- IC50 [1]: 3790 nM
- inhibition [17]: Active
- Activity [18]: 0.71%
- IC50 [2]: 530 nM
- Activity [19]: Active
- Activity [20]: Active
- IC50 [3]: 9160 nM
- Activity [21]: 9.53%
- Activity [22]: 4.7%
- viability at 2.5 µM [23]: 75.3%
- Activity [24]: Active
- Activity [25]: 1.48%
- Activity [26]: Dose-Dependent Effect
- IC50 [4]: 1000 nM
- IC50 [5]: 670 nM
- IC50 [6]: 390 nM
- viability at 1.25 µM [27]: 83.5%
- Activity [28]: inactive
- IC50 at 2 days [7]: 4970 nM
- mortality at 168 h [29]: 100%
- Activity [30]: 5.47%
- Activity [31]: Active
- inhibition [32]: Active
- IC50 [8]: 220 nM
- IC50 [9]: 360 nM
- inhibition [33]: Dose-Dependent Effect
- IC50 [10]: 1150 nM
- Activity [34]: 8.46%
- Activity [35]: 6.94%
- inhibition [36]: Active
- Activity [37]: Active
- Activity [38]: 1.3%
- Activity [39]: 17%
